Structures are written as SMILES.

The test system of data set [1] is MPTP mouse model. The data set can be described thus: Acute MPTP model, FluoroJade staining of degenerating neurons. It is filed as in vivo, mice. Particulars: for Number of degenerating neurons: FluoroJade staining. The protocol: The results set forth below in Table 2 indicate the number of acutely degenerating neurons in the MPTP mouse model shown with FluoroJade staining with and without treatment with a single administration of rotigotine:
To induce intoxication, mice were administered 80 mg/kg of the neurotoxin 1-methyl-4-phenyl-1,2,3,6-tetrahydro-pyridine (MPTP) (in portions of 20 mg/kg at two-hourly intervals) resulting in the degeneration of approximately 50-60% of the neurons in the substantia nigra. Approximately 16 hours previously, rotigotine was added in doses of 0.3, 1 or 3 mg/kg respectively as a so-called ‘slow-release formulation’ (see embodiment 2). Diffusion and absorption latencies mean that rotigotine is optimally available when MPTP is added. Animals that were only given the vehicle solution (see embodiment 2 without rotigotine HCl) served as controls. After 24 hours, the animals were sacrificed and the brains fixed. The brain sections were stained with FluoroJade for the identification of degenerating cells. Immunohistochemical marking of the tyrosine hydroxylase was used to identify dopaminergic neurons. […] The number of the degenerating neurons was approximately 50% lower after the application of rotigotine, which is further confirmation of the neuroprotective properties of the substance (Table 2).

For data set [2], the system named is MPTP mouse model. In words: Subacute MPTP model, dopamine transporter density in the striatum. It is filed as in vivo, mice. As to the method: To induce intoxication, mice were administered 80 mg/kg of the neurotoxin 1-methyl-4-phenyl-1,2,3,6-tetrahydro-pyridine (MPTP) (in portions of 20 mg/kg in two-hourly intervals, groups 3-6 in FIGS. 1 and 2) resulting in the degeneration of about 50-60% of the neurons of the substantia nigra (maximum degeneration in group 3 in FIGS. 1 and 2). Rotigotine was administered daily in doses of 0.3, 1 or 3 mg/kg respectively over 7 days as a so-called ‘slow-release formulation’ (see embodiment 2) (groups 4-6 in FIGS. 1 and 2). A group of MPTP-treated animals (group 3) was given rotigotine-vehicle solution (see embodiment 2 without rotigotine HCl) and served as a reference. The controls were groups 1, 2 and 7, whereby group 1 is not given any treatment, group 2 is treated with the vehicle-solutions for MPTP and rotigotine, and group 7 was exclusively given rotigotine. The animals were sacrificed on day 8, their brains removed and frozen. Frozen sections were incubated with 100 pm[^125I] PE21 ([^125I]-(E)-N(3-iodoprop-2-enyl)-2β-carboxymethyl-3β-(4′-methylphenyl)-nortropane) in a phosphate buffer, pH 7.4 in order to mark the quantity of dopamine transporters still present in the striatum as an indicator of the quantity of functioning nerve endings. […] This is clear evidence of the neuroprotective properties of the substance (FIG. 1 and 2).

Data set [3] has as its system MPTP model in monkeys (macaques). In words: Progressive MPTP primate model, pilot study. It is filed as in vivo. As to the method: In the MPTP model used, which reflects the progressive course of dopaminergic cell destruction in primates, monkeys (macaques) were injected with subthreshold toxic doses of MPTP over several days. The parkinsonian symptoms developed in the model over a period of approximately 2 weeks. As soon as a specific degree of damage was reached, daily injections of rotigotine were provided in a formulation giving rise to a continuous plasma level over a 24 hour period. The injections of MPTP were stopped as soon as the motor activity in the controls had reduced by a specific degree (approximately 5 days later). The animals' behavior was evaluated every day. […] At the end of rotigotine application or at the end of the wash-out phase, in each case one group of animals was sacrificed and the condition of the basal ganglia investigated histologically and biochemically. The density of the nerve endings in the striatum of the treated animals was much higher than it was in the untreated animals.

For data set [4] the following is noted: transdermal administration, WO 02/089777 and other authors; cited from earlier work.

`CCCN(CCc1cccs1)[C@H]1CCc2c(O)cccc2C1` [rotigotine, (−)5,6,7 ,8-tetrahydro-6-[propyl[2-(2-thienyl)ethyl]amino]-1-naphthol]: the “Number of degenerating neurons” value in the data set with MPTP mouse model [1] (MPTP intoxication + rotigotine 0.3 mg/kg, single administration) is reported as 66.7; in the data set on MPTP mouse model [1] (MPTP intoxication + rotigotine 1.0 mg/kg, single administration), 76.8; with MPTP mouse model [1] (MPTP intoxication + rotigotine 3.0 mg/kg, single administration) it was 34.9; with MPTP mouse model [1] (MPTP-vehicle + rotigotine 3.0 mg/kg (no MPTP)), 3.8. In the data set with MPTP mouse model [1] (acute MPTP model, versus MPTP without rotigotine), the “Number of degenerating neurons lower after application of rotigotine” value was “approximately 50%”. The “Number of degenerating neurons in the mesencephalon” value in the data set on MPTP mouse model [1] (acute phase after MPTP, after administration of rotigotine) is listed as “reduced”. Further, in the data set with MPTP mouse model [1] (treated versus untreated animals, 24 hours after MPTP), the “Staining of the tyrosine hydroxylase (dopaminergic neurons)” value was “did not identify any differences between the treated and untreated animals”. Besides, the “Survival of the neurons and the nerve endings” value in the data set with MPTP mouse model [2] (0.3, 1 or 3 mg/kg daily over 7 days, slow-release formulation) is “improves the survival of the neurons and the nerve endings in relation to the dose”. In the data set on MPTP mouse model [2] (subacute phase after MPTP), the “Dopaminergic innervation of the striatum (density of the dopamine transporter)” value is “virtually completely retained or restored”. Further, the Content of preproenkephalin entry in data set [3] (after the treatment and after the wash-out phase) is listed as “tendency toward normalization”. For the same compound, the “Density of the nerve endings in the striatum” value in data set [3] (treated versus untreated animals) is recorded as “much higher”. Also, the “Motor activity of the animals” value in data set [3] (under treatment with daily injections and in the following wash-out phase) was “significantly improved”. Moreover, the UPDRS scores entry in data set [4] is listed as “improvement”.

Source of the values: patent publication US7872041B2, “Use of rotigotine for treating and preventing Parkinson's plus syndrome” (priority 2004, dated 2011).
